# Data from patent US11680078B2, “Anticancer compounds” (GODAVARI BIOREFINERIES LIMITED, priority 2017, dated 2023).
# pIC50: −log10 of the molar value. Values joined by “and” are separate entries in the source; they are usually repeats but may differ in a detail not shown here. Equal entries are not always repeated.
# Assays:
# [1] = system: PC3; assay: MTT antiproliferative assay, PC3; assay type: cell-based; conditions: PC3 prostate cell line, 48 hrs drug incubation
# Experimental: (§1) MTT assay is a simple and sensitive assay where, metabolic reducing activity of the cells is measured. The increase of this activity in time is taken as a parameter of cell growth. If treatment with a drug impairs this increase, the action may be a consequence of growth inhibition, cell killing or both. The compounds of Formula V to XIV of the present invention, standard cytotoxic drug (e.g. Cisplatin) were tested at different concentrations (1, 0.1, 0.01, 0.001 mM) using breast and prostate cancer cell lines. All cell lines were cultured in a 37° C. incubator with a 5% CO2 environment. Compounds were dissolved in DMSO with a concentration of 0.1M (stock solution). Cells were seeded into 96-well plates at suitable plating efficiency.
# (§2) Following Plating Efficiencies were Standardized for MTT Assay:
# (§3) The MTT procedure followed was as follows. Briefly, the cells were plated in 96 well plate as per predetermined plating efficiency (Table 1) The plates were then incubated for 24 hrs in 5% CO2 atmosphere at 37° C. Appropriate concentrations of the drugs were then added to the plate and further incubation was carried out for 48 hrs (in 5% CO2 atmosphere at 37° C.). The assay plate was then centrifuged twice at 3000 rpm for 3 mins and supernatant was then discarded. 100 ul of MTT solution (0.5 mg/ml) was then added to each well of the plate and it was further incubated for 4 hrs (in 5% CO2 atmosphere at 37° C.) Following 4 hr incubation, the plate was then centrifuged twice, and supernatant was aspirated off very carefully. 200 ul of DMSO was then added to each well to solubilize. MTT crystals and mixed well by shaking the plate. XY graph of log Percent viability was then plotted against log drug concentration. […] (Drug concentration inhibiting the 50% of cell population) was then calculated by regression analysis.
# [2] = system: spheres of MDAMB231; assay: In vitro sphere-forming assay, MDAMB231 in Mammosphere media; assay type: cell-based; conditions: 2000 cells/well, n = 6 ± S.D
# Source text: (§4) Sphere assay measures the ability of Cancer Stein Cells to form spheres in specially designed serum-free medium. We have used this assay to measure the killing efficiency of the test compounds as compared to the standard chemotherapeutic drug, Cisplatin.
# (§5) Materials and Reagents:50× B27 Supplement (Life Technologies, Invitrogen, Catalog No.: 17502-044), Fibroblast Growth Factor (FGF) (Sigma-Aldrich, Catlog No.: F029125), Epidermal Growth Factor (EGF) (Sigma-Aldrich, Catlog No.: E9644), Insulin (Sigma, Catlog No.: 19278), Dulbecco's Modified Eagle Medium/F12 (HiMedia Catlog No.: AL139-6), Dulbecco's Phosphate Buffered Saline (HiMedia Catlog No.: TL1006), Trypan Blue (TC193), Prostate Epithelial Media (LONZA, Catlog No.: CC-3166) MEGM (LONZA, Catlog No.: CC-3051), Heparin (Sigma, Catlog No.: H3393), Penstrep (HiMedia, Catlog No.: A002)
# Mammosphere Media Preparation (For 100 mL): 1 g methyl cellulose autoclaved with magnetic stirrer Plain media (MEBM), 100 mL added and dissolved under magnetic stirring. After complete dissolution, add: FGF-80 μL, EGF-40 μL, Penstrep-1 mL, Heparin-400 μL.
# (§6) Procedure: —The cells were trypsinised and made into single-cell suspension by passing through cell strainers ([…], respectively), The cells were diluted at the concentration of 2000 cells/100 μL and suspended in either Mammosphere (for breast cell lines) or Prostosphere (for prostate cell lines). 100 μL of this suspension was added into each well of 96-well suspension plates and incubated at 37° C., 5% CO2 for 24 hrs. Appropriate concentrations of the drugs (2 μL) were added into respective wells with 100 μL of stem cell culture medium. Plates were incubated at 37° C., 5% CO2 for 72 hrs. After incubation 2.5 μL of the respective drug concentration and 50 μL of stem cell culture medium were added into each well and the plates were further incubated at 37° C., 5% CO2 for 72 hrs. 3 μL of the respective drug concentration was added with 50 μL of stem cell culture medium again after incubation and plates were incubated again for 72 hrs at 37° C., 5% CO2. Number of primary spheres formed for each concentration was counted. A comparative graph of number of spheres formed was plotted against the concentration and the growth curve was compared with the positive control.
# [3] = system: DU145; assay: MTT antiproliferative assay, DU145; assay type: cell-based; conditions: DU145 prostate cell line, 48 hrs drug incubation
# Experimental: as §1, §2, §3
# [4] = system: PC3; assay: Soft Agar colony-formation Assay, PC3; assay type: cell-based; conditions: PC3 prostate cell line, 1 week
# Experimental: (§7) The Soft Agar Colony-formation Assay is an anchorage-independent growth assay in soft agar, which is one of the most stringent assays for detecting malignant transformation of cells. For this assay, malignant cells are cultured with appropriate controls in soft agar medium for 1-2 weeks. Following this incubation period, formed colonies can either be analyzed morphologically using cell stain and quantifying the number of colonies formed.
# (§8) Briefly, for Soft Agar Assay a mixture of 50 ul of 2× medium (taken appropriately as per cell line) and 50 ul of 1.2% Bacto Agar were plated on to each well of 96 well micro titer assay plate. 10 ul of cells (Of specific plating efficiency pre-standardized for respective cell line) were mixed with 20 ul of 2× medium and 30 ul of 0.8% of Bacto Agar and 1.6 ul of drug (of appropriate concentration) in a vial and transferred to the solidified pre-layers of the assay plates. The cells were then allowed to grow and form colonies at 37° C. and 5% CO2 for 1 week. An intermittent feeding with 50 ul of appropriate 2× medium was performed after 3 days of experimental set up. 16 ul of Alamar Blue (1.5 mg/ml) was then added to all the wells to quantify the developed colonies. The plates were incubated for 24 hrs at 37° C. Absorbance was then measured at 630 nm. XY graph of log Percent viability was then plotted against log drug concentration. IC50 (Drug concentration inhibiting the 50% of cell population) was then calculated by regression analysis.
# (§9) Following Plating Efficiencies Were Standardized for Soft Agar Assay: […]
# [5] = system: MDAMB231; assay: MTT antiproliferative assay, MDAMB231; assay type: cell-based; conditions: MDAMB231 breast cell line, 48 hrs drug incubation
# Experimental: as §1, §2, §3
# [6] = system: spheres of PC3; assay: In vitro sphere-forming assay, PC3 in Prostosphere media; assay type: cell-based; conditions: 2000 cells/well, n = 6 ± S.D
# Source text: as §4, §5
# Prostosphere Media Preparation (For 100 mL):1 g methyl cellulose autoclaved with magnetic stirrer, Plain media (Prostate Epithelial Basal Medium), 100 mL added and dissolved, under magnetic stirring. After complete dissolution, add: Insulin-40 μL, B27-2 mL, EGF-80 μL, Penstrep-1 ml.
# as §6
# [7] = system: MDAMB231; assay: Soft Agar colony-formation Assay, MDAMB231; assay type: cell-based; conditions: MDAMB231 breast cell line, 1 week
# Experimental: as §7, §8, §9
# [8] = system: MCF7; assay: MTT antiproliferative assay, MCF7; assay type: cell-based; conditions: MCF-7 breast cell line, 48 hrs drug incubation
# Experimental: as §1, §2, §3
# [9] = system: normal lymphocytes; assay: Normal cell assay (MTT) on lymphocytes from a healthy donor
# Experimental: In order to test the activity of cytotoxic drugs towards normal cells, we performed MTT
# Assay for these cytotoxic drugs using lymphocytes obtained from a healthy donor.
# Briefly, diluted defibrinated fresh blood was overlaid gradually on HiSeP LSM1077 and centrifuged at low speed for 30 mins. The lymphocyte layer (the buffy coat) (Fig) was carefully removed in a new collection tube. The buffy coat was given another wash, by the diluent buffer, to reduce the platelet contamination. The supernatant was discarded, and the pellet was resuspended in diluent buffer. The viability was checked by Haemocytometer. Cells with Viability and Purity of 95% and more were considered for the assay. MTT assay was performed with these cells as described above with plating efficiency of 0.7 million/ml.
# [10] = Homo sapiens, MDA-MB-231, 168 h
SMILES,"pIC50 ([1]; Homo sapiens, PC-3)",3D sphere count of MDAMB231 ([2]; drug conc 0.025 uM),3D sphere count of MDAMB231 ([2]; drug conc 0.25 uM),3D sphere count of MDAMB231 ([2]; drug conc 2.5 uM),3D sphere count of MDAMB231 ([2]; drug conc 25 uM),3D sphere count of MDAMB231 ([2]; drug conc 250 uM),"pIC50 ([3]; Homo sapiens, DU-145)","pIC50 ([4]; Homo sapiens, PC-3, 168 h)","pIC50 ([5]; Homo sapiens, MDA-MB-231)",3D sphere count of PC3 ([6]; drug conc 0.025 uM),3D sphere count of PC3 ([6]; drug conc 0.25 uM),3D sphere count of PC3 ([6]; drug conc 2.5 uM),3D sphere count of PC3 ([6]; drug conc 25 uM),3D sphere count of PC3 ([6]; drug conc 250 uM),"pIC50 [7, 10]","pIC50 ([8]; Homo sapiens, MCF7)",further results
"Cl.c1ccc(COc2ccc(-c3ccc4c(c3)OCO4)c3cccnc23)cc1 [Formula XIII, 5-(benzo[d][1,3]dioxol-5-yl)-8-(benzyloxy)quinoline hydrochloride]",5.36,45(±2),36(±3),27(±2),13(±2),0(±0),5.39,5.20,5.10,41(±7),39(±5),27(±3),14(±1),0(±0),5.57,,
"O=C(Nc1ccc(-c2ccc3c(c2)OCO3)c2ccccc12)c1ccco1 [Formula XII, N-(1-(benzo[d][1,3]dioxol-5-yl)naphthalen-4-yl)furan-2-carboxamide]",4.71,31(±2),27(±2),17(±2),8(±1),0(±0),5.01,5.47,5.47,37(±3),28(±3),23(±2),15(±2),0(±0),5.67,5.31,
"O[C@@H]1[C@H](O)COC(Oc2ccc(-c3ccc4c(c3)OCO4)c3ccccc23)[C@H]1O (stereo partly drawn) [Formula XI, (3S,4R,5R)-2-(1-(benzo[d][1,3]dioxol-5-yl)naphthalen-4-yloxy)-tetrahydro-2H-pyran-3,4,5-triol]",5.38,,,,,,4.99,4.72,5.01,,,,,,5.68,5.36,
"O=C(Oc1ccc(-c2ccc3c(c2)OCO3)c2ccccc12)C(c1ccccc1)C1CCCC1 (stereo not drawn) [Formula IX, 1-(benzo[d][1,3]dioxol-5-yl)naphthalen-4-yl 2-cyclopentyl-2-phenylacetate]",5.25,52(±4),40(±5),26(±3),22(±3),0(±0),5.05,5.32,5.28,60(±7),44(±4),37(±5),31(±3),0(±0),5.67,5.28,
"N.N.[Cl][Pt][Cl] [Cisplatin, reference compound]",,50(±3) and 89(±4) and 62(±6) and 67(±2),42(±3) and 69(±7) and 48(±2) and 58(±3),35(±2) and 51(±5) and 43(±2) and 46(±3),31(±3) and 38(±8) and 37(±4) and 35(±2),18(±2) and 23(±5) and 31(±4) and 26(±3),,,,58(±4) and 47(±4) and 62(±5) and 45(±2),47(±5) and 49(±7) and 55(±5) and 42(±3),40(±3) and 41(±4) and 46(±2) and 39(±2),32(±2) and 31(±5) and 33(±3) and 32(±3),25(±3) and 30(±5) and 22(±4) and 21(±2),,,pIC50 [1]: 4.55 and 4.54 and 4.39 and 4.45 and 4.44; pIC50 [3]: 4.62 and 4.37 and 4.46 and 4.45; pIC50 [4]: 4.69 and 4.67 and 4.62 and 4.66; pIC50 [8]: 4.53 and 4.49 and 4.48; pIC50 [5]: 4.49 and 4.41 and 4.43 and 4.45; pIC50 [7]: 4.38 and 4.61 and 4.43 and 4.62
"CCOC(=O)c1c(C(=O)OCC)c(-c2ccc3c(c2)OCO3)c2cc(OC)c(OC)cc2c1OC1OC[C@@H](OC)[C@H](OC)[C@H]1O (stereo partly drawn) [Formula VI, diethyl 1-(benzo[d][1,3]dioxol-5-yl)-4-((3R,4R,5R)-3-hydroxy-4,5-dimethoxy-tetrahydro-2H-pyran-2-yloxy)-6,7-dimethoxynaphthalene-2,3-dicarboxylate]",5.25,44(±3),36(±2),24(±3),7(±2),0(±0),,5.49,5.00,40(±3),28(±2),30(±2),21(±2),0(±0),4.85,,activity on normal lymphocytes [9]: does not show activity
"Cn1cccc1C(=O)Oc1ccc(-c2ccc3c(c2)OCO3)c2ccccc12 [Formula X, 1-(benzo[d][1,3]dioxol-5-yl)naphthalen-4-yl 1-methyl-1H-pyrrole-2-carboxylate]",5.59,39(±4),37(±4),28(±3),24(±3),0(±0),5.48,5.62,5.50,,,,,,5.68,5.46,activity on normal lymphocytes [9]: does not show activity
